This is an account of results in patent EP2678315B1, “(Pyridin-4-yl)benzylamides as allosteric modulators of alpha 7 nAChR” (Janssen Pharmaceutica, N.V., priority 2011, dated 2012).

Where two headings read alike, the source gives them in different places.

Assay [1] has as its target T1, human alpha 7-wt nAChR (Homo sapiens, UniProt P36544).
T1 construct: expressed in transfected cells
Briefly: Ca2+ flux imaging (FDSS) (protocol B). The format is cell-based. The settings on record: for EC50: read-out: pEC50 (converted); for Emax: read-out: % Efficacy. The method in brief: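 Fluo-4AM-loaded (2 µM) cells expressing human α7-wt nAChR in HEPES-HBSS with 5 mM CaCl2. Compounds (0.01–30 µM) were added, possibly 10 min before, with choline 100 µM, and peak fluorescence was monitored by FDSS. Potentiation was relative to the choline response, set as 100%; EC50 came from sigmoidal curves.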

The target of assay [2] is T1, human alpha 7-wt nAChR. Briefly: Patch-clamp current recording (whole-cell voltage-clamp, GH4C1 cells). Format: cell-based. Details: key: Type 0 compounds minimally change the effect size of the current elicited by 1 mM choline.; Type 1 compounds enhance the effect size of the current elicited by 1 mM choline but minimally alter the kinetics of the receptor.; Type 2 compounds enhance the effect size of the current elicited by 1 mM choline while reducing the rate and/or the extent of desensitization.; Type 3 compounds enhance the effect size of the current elicited by 1 mM choline. When tested at higher concentrations up to 10 µM they completely inhibit desensitization; Type 4 compounds allow for an initial desensitization of the receptor followed by a re-opening of the receptor during agonist application. The settings on record: current elicited by 1 mM choline. How it is done:
The compounds of the present invention are classified as type 1-4, based on qualitative kinetic properties, as determined by whole-cell voltage-clamp recordings. This classification is based on the effect of an alpha 7 PAM compound, as described hereinbefore, on the signal elicited by an agonist application. In particular, said agonist is choline at a concentration of 1mM. In a preferred experimental setting, said alpha 7 PAM compound and choline are simultaneously applied to the cell, as described hereinafter. Desensitization is defined as the closure of the receptor upon activation during the application of the agonist in whole-cell voltage-clamp electrophysiology measurements seen as the reduction of the […] current after initial activation by the agonist.
The definition of the PAM types 1-4 is described hereinafter: Type 0 compounds minimally change the effect size of the current elicited by 1 mM choline. Type 1 compounds enhance the effect size of the current elicited by 1 mM choline but minimally alter the kinetics of the receptor. In particular, the rate and the extent of desensitization and of deactivation of the receptor elicited by the agonist is not affected. The compound-modulated response to 1 mM choline, therefore, is close to a linear scaling of the 1 mM choline response in absence of the alpha 7 PAM compound: Type 2 compounds enhance the effect size of the current elicited by 1 mM choline while reducing the rate and/or the extent of desensitization. Deactivation of the receptor is generally unaffected. Type 3 compounds enhance the effect size of the current elicited by 1 mM choline. […] Deactivation of the receptor may be slowed down. Type 4 compounds allow for an initial desensitization of the receptor followed by a re-opening of the receptor during agonist application. At low-potency concentrations of the alpha 7 PAM compound, the agonist-induced activation, which is followed by desensitization, can still be separated from the compound-induced re-opening as an initial inward current-maximum. At higher potency concentrations of the alpha 7 PAM compound, the re-opening occurs faster than the closure due to desensitization so that the initial current-maximum disappears.
A compound was considered to have interesting PAM-like activity when the potentiation of the peak current was at least 200% compared to the control choline response (= 100%). Such compounds are classified as belonging to a particular PAM type in the Experimental Part. Compounds not meeting the condition are not classified as belonging to a particular PAM-type.
The compounds also have a potentiating effect on the response to choline when measured by whole-cell patch clamp electrophysiology in GH4C1 cells stably over-expressing the human wild-type alpha 7 receptor.
Example D.2 : Patch-clamp current recording
Patch-clamp recording from mammalian cells has provided a powerful means of assessing the function of membrane-bound proteins thought to be subunits of ligand-gated ion channels. Activation of such proteins by endogenous or exogenous ligands cause opening of a pore associated with the receptor through which ions flow down their electrochemical gradient. In the case of the human alpha 7-wt nAChR-expressing GH4C1 recombinant cell line the preferential permeability to calcium of this receptor means that calcium flows into the cell upon activation by ACh, choline and other nicotinic ligands giving rise to a calcium current. Since this receptor rapidly desensitizes in the presence of agonist it is important that an application system is used which is capable of very rapid switching of solutions (< 100 ms) to prevent partial or full desensitisation of receptor responses coincident with the time of agonist application. Consequently, a second convenient technique to assess the enhancement of nicotinic efficacy is a patch-clamp recording from human alpha 7-wt nAChR-expressing GH4C1 cells coupled with a rapid-application system. […]
(In general: In patch-clamp work, channel activity is measured electrically.)

T1 sequence (P36544 23-502): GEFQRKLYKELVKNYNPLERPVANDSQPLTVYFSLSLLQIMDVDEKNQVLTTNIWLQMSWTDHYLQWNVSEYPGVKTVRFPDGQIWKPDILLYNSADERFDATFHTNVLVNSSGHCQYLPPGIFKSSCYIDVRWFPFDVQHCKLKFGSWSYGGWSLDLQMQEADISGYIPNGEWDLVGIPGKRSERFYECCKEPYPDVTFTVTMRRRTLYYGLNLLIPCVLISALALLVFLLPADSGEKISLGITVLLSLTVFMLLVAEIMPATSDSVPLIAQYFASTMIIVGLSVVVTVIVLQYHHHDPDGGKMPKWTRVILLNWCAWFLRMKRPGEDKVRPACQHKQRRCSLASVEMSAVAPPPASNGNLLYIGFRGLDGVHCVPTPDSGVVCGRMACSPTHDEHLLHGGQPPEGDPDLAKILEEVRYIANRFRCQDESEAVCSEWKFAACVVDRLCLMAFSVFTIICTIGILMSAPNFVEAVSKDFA

Consider `Cc1cc(-c2c(F)cc(N3CCO[C@H](C(F)(F)F)C3)cc2CNC(=O)CC(C)C)cc(C)n1` [Compound 110], for which the EC50 at human alpha 7-wt nAChR [1] (Ca2+ assay as described in D.1) is 5.01 nM. At human alpha 7-wt nAChR [1], the Emax turned out to be 384%. Also, on human alpha 7-wt nAChR [2], the PAM type is 3.

In the case of `Cc1cc(-c2c(F)cc(N3CCO[C@H](C(F)(F)F)C3)cc2CNC(=O)c2cc(C)on2)cc(C)n1` [Compound 111], the EC50 at human alpha 7-wt nAChR [1] (Ca2+ assay as described in D.1) was 331 nM. The Emax at human alpha 7-wt nAChR [1] turned out to be 550%. Moreover, the PAM type on human alpha 7-wt nAChR [2] turned out to be 1.

In the case of `Cc1cc(-c2c(F)cc(N3CCOC(C)C3)cc2CNC(=O)c2cc(C)on2)cc(C)n1` (stereo not shown) [Compound 112], at human alpha 7-wt nAChR [1] (Ca2+ assay as described in D.1), the EC50 is 1070 nM. In addition, on human alpha 7-wt nAChR [1], the Emax came to 443%. The PAM type at human alpha 7-wt nAChR [2] worked out at 2.

Regarding `Cc1cc(-c2c(F)cc(N3CCOC(C)C3)cc2CNC(=O)C(C)C)cc(C)n1` (stereo not shown) [Compound 113], on human alpha 7-wt nAChR [1] (Ca2+ assay as described in D.1), the EC50 is 89.1 nM. Moreover, the Emax at human alpha 7-wt nAChR [1] is 284%. The PAM type on human alpha 7-wt nAChR [2] is recorded as 2.

For `Cc1cc(-c2c(F)cc(N3CCOC(C)C3)cc2CNC(=O)CC2CC2)cc(C)n1` (stereo not shown) [Compound 114], at human alpha 7-wt nAChR [1] (Ca2+ assay as described in D.1), the EC50 is 158 nM. In addition, the Emax at human alpha 7-wt nAChR [1] amounted to 415%. Further, the PAM type on human alpha 7-wt nAChR [2] was found to be 3.

As for `Cc1cc(-c2c(F)cc(N3CCOC(C)C3)cc2CNC(=O)C2CC2)cc(C)n1` (stereo not shown) [Compound 115], the EC50 at human alpha 7-wt nAChR [1] (Ca2+ assay as described in D.1) is 525 nM. At human alpha 7-wt nAChR [1], the Emax stood at 232%. Besides, at human alpha 7-wt nAChR [2], the PAM type was determined as 2.

For `Cc1cc(-c2c(F)cc(N3CCOC(C)C3)cc2CNC(=O)CC(C)C)cc(C)n1` (stereo not shown) [Compound 116], at human alpha 7-wt nAChR [1] (Ca2+ assay as described in D.1), the EC50 was 20.9 nM. Also, the Emax at human alpha 7-wt nAChR [1] is 374%. Besides, the PAM type at human alpha 7-wt nAChR [2] is 3.

`Cc1cc(-c2c(F)cc(N3CCOC(C)C3)cc2CNC(=O)CC2CCC2)cc(C)n1` (stereo not shown) [Compound 118]: the EC50 on human alpha 7-wt nAChR [1] (Ca2+ assay as described in D.1) is 23.4 nM. In addition, at human alpha 7-wt nAChR [1], the Emax is 485%. Further, the PAM type at human alpha 7-wt nAChR [2] came out at 3.

Regarding `Cc1cc(-c2c(Cl)cc(N3C[C@@H](C)O[C@@H](C)C3)cc2CNC(=O)CC2CC2)cc(C)n1` [Compound 119], at human alpha 7-wt nAChR [1] (Ca2+ assay as described in D.1), the EC50 is 28.8 nM. In addition, the Emax at human alpha 7-wt nAChR [1] amounted to 624%. In addition, at human alpha 7-wt nAChR [2], the PAM type came to 2.

For `Cc1cc(-c2c(Cl)cc(N3C[C@@H](C)O[C@@H](C)C3)cc2CNC(=O)c2cc(C)on2)cc(C)n1` [Compound 120], the EC50 at human alpha 7-wt nAChR [1] (Ca2+ assay as described in D.1) was 661 nM. Further, at human alpha 7-wt nAChR [2], the PAM type came out at 1.

Take `Cc1cc(-c2c(Cl)cc(N3C[C@@H](C)O[C@@H](C)C3)cc2CNC(=O)C(C)C)cc(C)n1` [Compound 121]: the EC50 at human alpha 7-wt nAChR [1] (Ca2+ assay as described in D.1) is 38 nM. In addition, the Emax on human alpha 7-wt nAChR [1] came to 435%. For the same molecule, the PAM type on human alpha 7-wt nAChR [2] is on record as 2.

For the molecule `Cc1cc(-c2c(F)cc(N3C[C@@H](C)O[C@@H](C)C3)c(F)c2CNC(=O)c2cc(C)on2)cc(C)n1` [Compound 123], on human alpha 7-wt nAChR [1] (Ca2+ assay as described in D.1), the EC50 was 631 nM. Further, on human alpha 7-wt nAChR [2], the PAM type came out at 0.

Consider `Cc1cc(-c2c(F)cc(N3C[C@@H](C)O[C@@H](C)C3)c(F)c2CNC(=O)CC2CC2)cc(C)n1` [Compound 124], for which the EC50 at human alpha 7-wt nAChR [1] (Ca2+ assay as described in D.1) was 347 nM. In addition, the PAM type at human alpha 7-wt nAChR [2] was 2.

On to `Cc1cc(-c2cc(F)c(N3C[C@@H](C)O[C@@H](C)C3)cc2CNC(=O)CC2CC2)cc(C)n1` [Compound 125], for which the EC50 on human alpha 7-wt nAChR [1] (Ca2+ assay as described in D.1) is 263 nM. In addition, the Emax at human alpha 7-wt nAChR [1] stood at 451%. For the same molecule, the PAM type on human alpha 7-wt nAChR [2] worked out at 2.

For the molecule `Cc1cc(-c2cc(F)c(N3C[C@@H](C)O[C@@H](C)C3)cc2CNC(=O)C2CC2)cc(C)n1` [Compound 126], the EC50 at human alpha 7-wt nAChR [1] (Ca2+ assay as described in D.1) is 575 nM. Moreover, the Emax on human alpha 7-wt nAChR [1] was 352%. Besides, the PAM type on human alpha 7-wt nAChR [2] was 2.

Take `Cc1cc(-c2cc(F)c(N3C[C@@H](C)O[C@@H](C)C3)cc2CNC(=O)c2cc(C)on2)cc(C)n1` [Compound 127]: the EC50 on human alpha 7-wt nAChR [1] (Ca2+ assay as described in D.1) is 550 nM. Also, the Emax on human alpha 7-wt nAChR [1] is 554%. For the same molecule, at human alpha 7-wt nAChR [2], the PAM type turned out to be 1.

Take `Cc1cc(-c2cc(F)c(N3C[C@@H](C)O[C@@H](C)C3)cc2CNC(=O)C(C)C)cc(C)n1` [Compound 128]: on human alpha 7-wt nAChR [1] (Ca2+ assay as described in D.1), the EC50 was 295 nM. The Emax at human alpha 7-wt nAChR [1] worked out at 329%. In addition, the PAM type at human alpha 7-wt nAChR [2] is given as 2.

As to `Cc1cc(-c2ccc(N3CC4CCC(C3)O4)cc2CNC(=O)C2CC2)cc(C)n1` [Compound 131], at human alpha 7-wt nAChR [1] (Ca2+ assay as described in D.1), the EC50 is 631 nM. In addition, the Emax on human alpha 7-wt nAChR [1] came out at 269%. Further, the PAM type at human alpha 7-wt nAChR [2] was 2.

For `Cc1cc(-c2ccc(N3C[C@@H](C)O[C@@H](C)C3)c(CNC(=O)CC3CC3)c2)cc(C)n1` [Compound 132], on human alpha 7-wt nAChR [1] (Ca2+ assay as described in D.1), the EC50 was 60.3 nM. In addition, the PAM type on human alpha 7-wt nAChR [2] is given as 4.

Regarding `Cc1cc(-c2ccc(N3C[C@@H](C)O[C@@H](C)C3)c(CNC(=O)c3cc(C)on3)c2)cc(C)n1` [Compound 133], the EC50 on human alpha 7-wt nAChR [1] (Ca2+ assay as described in D.1) was 50.1 nM. Further, the PAM type at human alpha 7-wt nAChR [2] is given as 0.

`Cc1cc(-c2ccc(N3C[C@@H](C)O[C@@H](C)C3)c(CNC(=O)C(C)C)c2)cc(C)n1` [Compound 134]: the EC50 on human alpha 7-wt nAChR [1] (Ca2+ assay as described in D.1) is 91.2 nM. For the same molecule, on human alpha 7-wt nAChR [2], the PAM type was 3.

As for `Cc1cc(-c2ccc(N3C[C@@H](C)O[C@@H](C)C3)c(CNC(=O)c3conc3C)c2)cc(C)n1` [Compound 136], the EC50 on human alpha 7-wt nAChR [1] (Ca2+ assay as described in D.1) is 129 nM. In addition, at human alpha 7-wt nAChR [2], the PAM type stood at 3.

As for `CC(C)C(=O)NCc1cc(N2CCOCC2)ccc1-c1ccncc1` [Compound 137], the Emax on human alpha 7-wt nAChR [1] (Ca2+ assay as described in D.1) was 528%. Further, at human alpha 7-wt nAChR [2], the PAM type was 0.
